US5244897A, “Glycyl-p-amino-pyridine for the treatment of senile dementia states” (priority 1989, dated 1993)

Assays:
[1] = acute toxicity after oral administration (Litchfield and Wilcoxon); type: in vivo; conditions: Swiss mice; for LD50: mouse, in vivo
[2] = acute convulsant activity after oral administration (Litchfield and Wilcoxon); type: in vivo; conditions: Swiss male mice; for TD50: mouse, in vivo, read-out: CD50 (Convulsant Doses 50)
[3] = toxicity after repeated oral administration, 30 days, preliminary study; type: in vivo, male and female Sprague Dawley rat; conditions: 6 mg/kg oral, 30 consecutive days, rat
Description: The toxicity of MR-3066 after repeated administration was evaluated in male and female Sprague Dawley rat after oral administration of the drug (6 mg/kg) for 30 consecutive days.

[4] = test system: acetylcholine release from the rat's cerebral cortex; assay: acetylcholine release in vivo, acute treatment; conditions: 5.6 mg/kg i.p., anesthetized rats, n=5
Description: Effect on acetylcholine release from the rat's cerebral cortex "in vivo"
In this study the Acetylcholine release from the cerebral cortex was investigated in anesthetized rats (n=5) at different times before and after i.p. administration of MR-3066 at a dose of 5.6 mg/kg.

[5] = test system: retention of passive avoidance response; assay: learning behavior in normal mice (passive avoidance response); type: in vivo, male mice; conditions: n=20
Description: Male mice (body weight ca 20 grams) were used. The test apparatus was a box with a dark compartment and an illuminated one.
The animal was placed in the illuminated compartment, foot-shock was given immediately after the mouse moved in the dark compartement (acquisition trial).
MR-3066 was intraperitoneally administered immediately after the acquisition trial.
The test trial was carried out 24 h following the acquisition trial and the latency time to enter the dark compartment was recorded.
Anti-amnesic activity was calculated according to the following formula:
of control = (the mean latency time of test compound treated mice/the mea
latency time of vehicle treated mice) 100.

[6] = test system: electroconvulsive shock (ECS) induced amnesia; assay: electroconvulsive shock (ECS) induced amnesia (passive avoidance); type: in vivo, male mice; conditions: n=20; for minimal effective dose: Mus musculus, ip, read-out: Active dose (significantly prolonged the latency)
Description: Male mice (body weight 23-26 grams) were used.
Test apparatus and passive avoidance training (acquisition trial) were as described in the previous section.
Immediately after acquisition trial, amnesia was induced by electroconsulsive shock (ECS).
Test compounds were administered intraperitoneally soon afterwards the exposure to ECS.
The test trial was performed 24 h after the acquisition trial: the animals were put in the illuminated compartment an the latency time to enter the unlighted compartment was recorded
(§1) Anti-amnesic activity was calculated according to the following formula.
(§2) % of control = (the mean latency time of test compound treated mice/the
(§3) mean latency time of vehicle treated mice) × 100.

[7] = test system: scopolamine-induced amnesia; assay: scopolamine-induced amnesia (passive avoidance); type: in vivo, mice; conditions: for minimal effective dose: Mus musculus, ip, read-out: Active dose (significantly prolonged the latency)
Description: Test apparatus, mice and passive avoidance training (acquisition trial) were as described in the previous sections (4.2-4.3). The compounds were intraperitoneally administered 30 min. before the acquisition trial.
Amnesia was induced by scolopolamine (1 mg/kg s.c.) given 20 min. prior to the acquisition trial; the test trial was performed after 24 hours.
The animals were put in the illuminated compartment and latency time to enter the dark compartment was recorded.
as §1, §2, §3

[8] = mean blood pressure (reported with the transcallosal evoked potential study); type: in vivo, rats; conditions: for mean blood pressure: MR-3066 2 mg/kg i.v., physostigmine 0.1 mg/kg i.v.
Description: (§4) Electric stimulus was given to the callosum of urethane anesthetized rats, and transcallosal evoked potential from the opposite side cerebral cortex was measured.
(§5) The effects of the compounds on the transcallosal evoked potential were studied in rats.

[9] = properties stated in the general summary; type: in vivo; conditions: general statement
[10] = test system: spontaneous EEG (motor cortex, hippocampus, nucleus amygdalae); assay: spontaneous EEG; type: in vivo; conditions: 0.1 mg/kg i.v., rabbits
Text: Electrodes were chronically implanted in the motor cortex, the hippocampus and the nucleus amygdalae of rabbits (n=4).
The effects of compounds on spontaneous EEG were studied in the animals.

[11] = test system: transcallosal evoked potential from the opposite side cerebral cortex; assay: transcallosal evoked potential; type: in vivo, urethane anesthetized rats; conditions: 0.1 mg/kg i.v., rats
Description: as §4, §5

[12] = ECS amnesia, 1 mg/kg i.p., MR-3066 ** P < 0.01 vs control
[13] = ECS amnesia, 2,5 mg/kg i.p., MR-3066 * P < 0.05, THA ** P < 0.01 vs control

SMILES: Nc1ccncc1 [4-aminopyridine, reference compound]
- LD50 [1]: 12 mg/kg
- TD50 [2]: 5 mg/kg

SMILES: NCC(=O)Nc1ccncc1 [MR-3066, glycyl-p-amino-pyridine monoacetate]
- acute toxicity versus 4-aminopyridine [1]: toxicity lower than 4-aminopiridine
- LD50 [1]: 29 mg/kg
- convulsant activity versus 4-aminopyridine [2]: less convulsant than 4-aminopyridine
- TD50 [2]: 19 mg/kg
- toxic phenomena after repeated administration [3]: no toxic phenomenon except for a slight decrease in body weight, increase in the female accompanied by a reduction in food consumption
- time of peak of Ach release [4]: 45 '
- Mean latency (% of control) ([5]; 1 mg/kg i.p.): 120.5 % of control
- Mean latency (% of control) ([5]; 2.5 mg/kg i.p.): 118.8 % of control
- Mean latency (% of control) ([5]; 5 mg/kg i.p., ** P < 0.01 vs control): 136.1 % of control
- minimal effective dose ([5]; Mus musculus, ip, passive avoidance, normal mice, read-out: Active dose (significantly prolonged the latency)): 5 mg/kg
- Anti-amnesic activity (% of control) ([6]; ECS amnesia, 0,1 mg/kg i.p.): 148,2 % of control
- Anti-amnesic activity (% of control) ([6]; ECS amnesia, 0,5 mg/kg i.p.): 121,6 % of control
- Anti-amnesic activity (% of control) ([6]; ECS amnesia, 0,25 mg/kg i.p.): 147,8 % of control
- Anti-amnesic activity (% of control) [6, 12]: 189,6 % of control
- Anti-amnesic activity (% of control) ([6]; ECS amnesia, 5 mg/kg i.p.): 148 % of control
- Anti-amnesic activity (% of control) [6, 13]: 165,5 % of control
- minimal effective dose ([7]; scopolamine amnesia): 1 mg/kg
- Anti-amnesic activity (% of control) ([7]; scopolamine amnesia, 0,5 mg/kg i.p.): 157,6 % of control
- Anti-amnesic activity (% of control) ([7]; scopolamine amnesia, 1 mg/kg i.p., ** P < 0.01 vs controls): 188,1 % of control
- Anti-amnesic activity (% of control) ([7]; scopolamine amnesia, 5 mg/kg i.p.): 159,5 % of control
- Anti-amnesic activity (% of control) ([7]; scopolamine amnesia, 2,5 mg/kg i.p.): 145,2 % of control
- mean blood pressure [8]: raised the mean blood pressure
- Parkinson-like effect [9]: without nevertheless showing Parkinson-like effect

SMILES: CNC(=O)Oc1ccc2c(c1)[C@]1(C)CCN(C)[C@@H]1N2C [Physostigmine]
- Anti-amnesic activity (% of control) ([6]; ECS amnesia, 0,05 mg/kg i.p., * P < 0.05): 165,6 % of control
- Anti-amnesic activity (% of control) ([6]; ECS amnesia, 0,025 mg/kg i.p., * P < 0.05): 172,9 % of control
- Anti-amnesic activity (% of control) ([6]; ECS amnesia, physostigmine 0,1 mg/kg i.p.): 148 % of control
- minimal effective dose ([6]; ECS amnesia): 0.025 to 0.05 mg/kg
- minimal effective dose ([7]; scopolamine amnesia): 0.1 mg/kg
- Active dose (significantly prolonged the latency) ([7]; scopolamine amnesia): 0,1 mg/kg i.p.
- Anti-amnesic activity (% of control) ([7]; scopolamine amnesia, 0,1 mg/kg i.p., * P < 0.05): 155,5 % of control
- Anti-amnesic activity (% of control) ([7]; scopolamine amnesia, 0,05 mg/kg i.p.): 134,5 % of control
- Anti-amnesic activity (% of control) ([7]; scopolamine amnesia, 0,025 mg/kg i.p.): 119,5 % of control
- onset of the EEG effects [10]: immediately after the administration
- amplitude of negative wave of transcallosal evoked potential [11]: increased the amplitude of negative wave
- mean blood pressure [8]: raised the mean blood pressure
- mean blood pressure effect versus MR-3066 ([8]; physostigmine 0.1 mg/kg i.v. vs MR-3066 2 mg/kg i.v.): much more marked than MR-3066

SMILES: Nc1c2c(nc3ccccc13)CCCC2 [THA]
- Anti-amnesic activity (% of control) ([6]; ECS amnesia, 0,5 mg/kg i.p.): 72,2 % of control
- Anti-amnesic activity (% of control) [6, 12]: 114,4 % of control
- Anti-amnesic activity (% of control) [6, 13]: 184,5 % of control
- Active dose (significantly prolonged the latency) ([6]; ECS amnesia): 2.5 mg/kg i.p.
- minimal effective dose ([6]; ECS amnesia): 2.5 mg/kg
